Common to all, as to test: inhibition of tumour cell growth, NCI panel, 48 h
Experiment [1] deals with ACHN.
Experiment [2] relates to SN12C.
The test system of experiment [3] is HCT-15.
In experiment [4] the test system is LOX IMVI.
Experiment [5] deals with NCI-H226.
Experiment [6] concerns SNB-75.
In experiment [7] the test system is RXF 393.
For experiment [8], the system named is NCI-H23.
The subject of experiment [9] is M14.
Experiment [10] has as its system EKVX.
Experiment [11] concerns SK-MEL-28.
In experiment [12] the test system is NCI-H460.
Experiment [13] relates to SW-620.
In experiment [14] the test system is COLO 205.
Experiment [15] concerns CAKI-1.
The subject of experiment [16] is RPMI-8226.

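Results reflect a 48-hour exposure of cells in 96-well plates to compound at five concentrations. At the GI50, growth is halved.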 Active and inactive are the calls of the source. No stated cut-off is given here; in the data, active = GI50 up to about 1.1 µM and inactive = higher.

`CCOC(=O)c1cnc2c(ccc3ncccc32)c1OCC`: the GI50 is > 100 µM (inactive) in experiment [1]; > 100 µM (inactive) in experiment [2]; more than 100 µM in experiment [3]; > 100 µM (inactive) in [4]; > 100 µM (inactive) in experiment [5]; > 100 µM (inactive) in experiment [6]. Further, the GI50 in experiment [7] is 82 µM (inactive); in experiment [8], > 100 µM (inactive); in experiment [9], > 100 µM (inactive); in experiment [10], 84.3 µM (inactive); in [11], > 100 µM (inactive); in experiment [12] it was > 100 µM (inactive). For the same compound, the GI50 in experiment [13] and in experiment [14] was > 100 µM (inactive) each time.
Take `Cc1cc([N+](=O)[O-])c(C)c2c1[nH]c1ccc(Cl)cc12`: the GI50 in experiment [1] was > 100 µM (inactive); in experiment [2], > 100 µM (inactive); in [3] it was 96.2 µM; in [4], > 100 µM (inactive); in experiment [5], > 100 µM (inactive); in [6] it was > 100 µM (inactive). For the same compound, the GI50 is > 100 µM (inactive) in experiment [15]; > 100 µM (inactive) in experiment [8]; > 100 µM (inactive) in [9]; > 100 µM (inactive) in experiment [10]; 50 µM (inactive) in experiment [16]; > 100 µM (inactive) in experiment [11]. Further, the values for the GI50 in experiment [12], in [13] and in experiment [14] were > 100 µM (inactive), 71.9 µM (inactive) and 71 µM (inactive), respectively.
On to `O=C1NC2C(CCO)CC=C[C@H]2c2cc3c(cc21)OCO3` (some centres not stated), for which the GI50 in [1] is > 100 µM (inactive); in [2], > 100 µM (inactive); in experiment [3] it was more than 100 µM; in experiment [4], > 100 µM (inactive); in experiment [5], 75.3 µM (inactive); in experiment [6], > 100 µM (inactive). Moreover, the GI50 in experiment [7], in experiment [8], in experiment [9], in [10], in experiment [16] and in [11] was > 100 µM (inactive) each time. Also, the GI50 in experiment [12], in [13] and in experiment [14] was > 100 µM (inactive) throughout.
For the compound `COC(=O)C(C(=O)OC)C1CCCC(=O)C1` (configuration not stated), the GI50 is > 100 µM (inactive) in experiment [1]; > 100 µM (inactive) in experiment [2]; more than 100 µM in [3]; > 100 µM (inactive) in experiment [4]; > 100 µM (inactive) in [6]; > 100 µM (inactive) in [7]. The GI50 in experiment [8], in [9], in [10], in experiment [16], in [11] and in experiment [12] was > 100 µM (inactive) in each case. The GI50 in experiment [13] and in [14] was > 100 µM (inactive) throughout.
Regarding `NC1=NC2=C(CCCC2)C(c2cccs2)S1` (configuration not stated), the GI50 was > 100 µM (inactive) in experiment [1]; > 100 µM (inactive) in [2]; more than 100 µM in [3]; > 100 µM (inactive) in experiment [6]; 38.5 µM (inactive) in [7]; > 100 µM (inactive) in experiment [15]. Besides, the GI50 in experiment [8] is > 100 µM (inactive); in [9], > 100 µM (inactive); in experiment [10], > 100 µM (inactive); in experiment [16], 61.7 µM (inactive); in [11], > 100 µM (inactive); in [12], > 100 µM (inactive). In addition, the GI50 in [13] and in experiment [14] was > 100 µM (inactive) throughout.
In the case of `CCCC1C(=O)CCc2c(OC)ccc(OC)c21` (configuration not stated), the GI50 in experiment [1] is > 100 µM (inactive); in experiment [2], > 100 µM (inactive); in experiment [3] it was more than 100 µM; in experiment [4], > 100 µM (inactive); in [6], 57.5 µM (inactive); in experiment [7], > 100 µM (inactive). Besides, the GI50 is > 100 µM (inactive) in [15]; > 100 µM (inactive) in experiment [8]; > 100 µM (inactive) in experiment [9]; > 100 µM (inactive) in experiment [10]; 65.9 µM (inactive) in experiment [16]; > 100 µM (inactive) in experiment [12]. Besides, the GI50 in [13] and in experiment [14] was > 100 µM (inactive) in each case.
As to `Cc1cc(C)nc(NS(=O)(=O)c2ccc(NC(=O)c3cccc4c(=O)c5ccccc5[nH]c34)cc2)n1`, the GI50 in [1] was 21.6 µM (inactive); in experiment [2] it was 15.9 µM (inactive); in experiment [3] it was 19.7 µM; in [4], 15.2 µM (inactive); in experiment [5] it was 19.1 µM (inactive); in experiment [6], 18.5 µM (inactive). The GI50 in experiment [15] was 33 µM (inactive); in experiment [8], 17 µM (inactive); in experiment [9], 18.9 µM (inactive); in [10], 26.5 µM (inactive); in [16], 10.9 µM (inactive); in experiment [11] it was 18.8 µM (inactive). The values for the GI50 in [12], in experiment [13] and in experiment [14] were 17 µM (inactive), 23.5 µM (inactive) and 18.3 µM (inactive), respectively.
For the compound `CSc1ccc(-c2cn3ccsc3n2)c(O)c1`, the GI50 was > 82.6 µM (inactive) in experiment [1]; > 79.1 µM (inactive) in experiment [2]; 17.6 µM in experiment [3]; 20 µM (inactive) in experiment [4]; > 100 µM (inactive) in [5]; 35.6 µM (inactive) in experiment [6]. For the same compound, the GI50 in [15] was > 100 µM (inactive); in experiment [8], 48.3 µM (inactive); in experiment [9], > 59.6 µM (inactive); in experiment [10], > 81.3 µM (inactive); in [16] it was 13.8 µM (inactive); in experiment [11] it was > 100 µM (inactive). The GI50 was 13.6 µM (inactive) in [12], 36.1 µM (inactive) in experiment [13] and > 44.5 µM (inactive) in experiment [14].
In the case of `CC1=C(c2cc(C(=O)Nc3ccc(Cl)cc3)nc(S)n2)Sc2ccccc2N1`, the GI50 in [1] is > 100 µM (inactive); in experiment [2], > 100 µM (inactive); in [3], more than 100 µM; in experiment [4], > 100 µM (inactive); in [6], > 100 µM (inactive); in [7], > 100 µM (inactive). For the same compound, the GI50 in experiment [15], in [8], in [9], in experiment [10], in experiment [11] and in experiment [12] was > 100 µM (inactive) in each case. Besides, the GI50 in experiment [13] and in [14] was > 100 µM (inactive) throughout.
Regarding `CCN(CC)CCCNC(=O)Cc1ccccc1Nc1c(Cl)cccc1Cl`, the GI50 in experiment [1] was 8.53 µM (inactive); in experiment [2], 14.5 µM (inactive); in experiment [3], 14.9 µM; in experiment [4], 12.3 µM (inactive); in experiment [5], 18.5 µM (inactive); in [6] it was 8.75 µM (inactive). The GI50 in experiment [7] is 15.8 µM (inactive); in experiment [8], 17.9 µM (inactive); in experiment [9], 2.82 µM (inactive); in experiment [10], 13.7 µM (inactive); in [16], 12.4 µM (inactive); in experiment [11] it was 12.5 µM (inactive). In addition, the values for the GI50 in experiment [13] and in [14] were 16.8 µM (inactive) and 13.7 µM (inactive), respectively.
`COc1ccc([C@@H]2C[C@@H]3C(=O)OC(=O)[C@@H]3c3c2c2ccccc2n3C)cc1`: the GI50 in [2], in experiment [5], in experiment [6], in experiment [15], in experiment [8] and in experiment [9] was > 100 µM (inactive) in each case. Also, the GI50 in experiment [10], in [16], in experiment [11], in experiment [13] and in [14] was > 100 µM (inactive) each time.
Regarding `Nc1c(-c2ccc(Cl)cc2)[n+]([O-])c2ccccc2[n+]1[O-]`, the GI50 in [1] is 57.1 µM (inactive); in [2], 95.1 µM (inactive); in experiment [3], 76.4 µM; in experiment [4], > 100 µM (inactive); in [5], 14.5 µM (inactive); in [6], 67.3 µM (inactive). Besides, the GI50 in experiment [15] was > 100 µM (inactive); in [8], 54.6 µM (inactive); in experiment [9], > 100 µM (inactive); in experiment [10], > 100 µM (inactive); in [16] it was 34.5 µM (inactive); in experiment [11] it was 76.9 µM (inactive). The GI50 in experiment [12] was 94.2 µM (inactive); in experiment [13], > 100 µM (inactive); in [14] it was > 100 µM (inactive).
For `CC[N+](CC)(CC)Cc1cn(S(=O)(=O)c2ccccc2)c2ccccc12`, the GI50 in experiment [1] is > 100 µM (inactive); in [3], more than 100 µM; in experiment [5] it was > 100 µM (inactive); in [6], 40.7 µM (inactive); in experiment [15] it was > 100 µM (inactive); in [8] it was > 100 µM (inactive). Further, the GI50 in experiment [9], in experiment [16], in experiment [11], in [12], in [13] and in experiment [14] was > 100 µM (inactive) each time.
Regarding `Cc1cc(NS(=O)(=O)c2ccc(NC(=O)c3cccc4c(Nc5ccc(S(=O)(=O)Nc6cc(C)on6)cc5)c5ccc(Cl)cc5nc34)cc2)no1`, the GI50 is 85.7 µM (inactive) in experiment [1]; 51.2 µM (inactive) in experiment [2]; 45.9 µM in [3]; 53.7 µM (inactive) in experiment [4]; 19.7 µM (inactive) in experiment [6]; 29.2 µM (inactive) in experiment [7]. The GI50 is > 100 µM (inactive) in experiment [15]; 45.1 µM (inactive) in experiment [8]; 32.1 µM (inactive) in experiment [9]; > 100 µM (inactive) in experiment [10]; 47.1 µM (inactive) in experiment [16]; 41 µM (inactive) in experiment [11]. Moreover, the GI50 in [12] is 65 µM (inactive); in experiment [13] it was 76.7 µM (inactive); in experiment [14] it was 56.1 µM (inactive).

(Values after ChEMBL document CHEMBL1201862, “PubChem BioAssay data set” (2004).)
